The target in the assay is T1, maize (Zea mays) class I EPSPS, wild type (WT), pMON70461, DNA SEQ ID NO:3 (Zea mays, UniProt O24566).
T1 construct: pMON70461
T1 sequence (O24566 with tags, fused parts or gaps): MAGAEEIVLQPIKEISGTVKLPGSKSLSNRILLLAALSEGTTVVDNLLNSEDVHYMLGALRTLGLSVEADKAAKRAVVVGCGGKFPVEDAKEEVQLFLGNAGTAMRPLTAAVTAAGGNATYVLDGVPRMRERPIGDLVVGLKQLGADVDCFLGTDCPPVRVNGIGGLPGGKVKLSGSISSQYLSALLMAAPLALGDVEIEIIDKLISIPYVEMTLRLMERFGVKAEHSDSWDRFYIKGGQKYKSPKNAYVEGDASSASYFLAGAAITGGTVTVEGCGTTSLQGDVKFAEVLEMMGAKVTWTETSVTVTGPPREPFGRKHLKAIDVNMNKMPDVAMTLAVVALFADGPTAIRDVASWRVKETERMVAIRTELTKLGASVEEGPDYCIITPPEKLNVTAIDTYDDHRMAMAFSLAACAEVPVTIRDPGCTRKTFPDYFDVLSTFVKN
As to the kind of experiment: EPSPS steady-state kinetics, wild-type maize EPSPS. The format is biochemical. As for the experimental part:
The wild type and variant EPSPS coding sequences were cloned into a pET-19b base vector (Novagen, Madison, Wis.). The plant (maize) class I EPSPS variants so created were assigned pMON plasmid numbers (Table 2). The variant EPSPS proteins were purified from the E. coli host using the protocols outlined in the pET system manual, 9th edition (Novagen) or by the following method. A single colony or a few microliters from a glycerol stock was inoculated into 4 mL LB medium containing 0.1 mg/mL carbenicillin antibiotic. The culture was incubated with shaking at 37 C for 4 hours. The cultures were stored at 4° C. overnight. The following morning, 1 mL of the overnight culture was used to inoculate 100 mL of fresh LB medium containing 0.1 mg/mL carbenicillin. The cultures were incubated with shaking at 37 C for 4-5 hours, then the cultures were placed at 4° C. for 5-10 minutes. The cultures were then induced with IPTG (1 mM final concentration) and incubated with shaking at 30 C for 4 hours or 20° C. overnight. The cells were harvested by centrifugation at 7000 rpm for 20 minutes at 4° C. The supernatant was removed and the cells were frozen at −70° C. until further use. The proteins were extracted by resuspending the cell pellet in BugBuster reagent (Novagen) using 5 mL reagent per gram of cells. Benzonase (125 Units) was added to the resuspension and the cell suspension was then incubated on a rotating mixer for 20 minutes at room temperature. The cell debris was removed by centrifugation at 10,000 rpm for 20 minutes at room temperature. The supernatant was passed through a 0.45 μm syringe-end filter and transferred to a fresh tube. A pre-packed columns containing 1.25 mL of His-Bind resin was equilibrated with 10 mL of 5 mM imidazole, 0.5 M NaCl, 20 mM Tris-HCl pH 7.9 (1× Binding Buffer). The column was then loaded with the prepared cell extract. After the cell extract had drained, the column was then washed with 10 mL of 1× Binding Buffer, followed with 10 mL of 60 mM imidazole, 0.5 M NaCl, 20 mM Tris-HCl pH 7.9 (1× Wash Buffer). […]

With `O=C(O)CNCP(=O)(O)O` [glyphosate, N-phosphonomethylglycine], the Ki was determined as 500 ± 60 nM.

These data come from patent US8436159B2, “Glyphosate resistant class I 5-endolpyruvylshikimate-3-phosphate synthase (EPSPS)” (Monsanto Technology LLC, priority 2003, dated 2013).
